Common to all, as to assay type: in vivo, Golden Syrian Hamster
The subject of assay [1] is SARS-CoV-2. Put plainly: Body weight variation of hamsters infected with SARS-CoV-2.
In the next assay the test system is TNF-α. Put plainly: Cytokine/chemokine profile by qRT-PCR in lung tissues and blood of SARS-CoV-2 infected hamsters.
The test system of assay [2] is SARS-CoV-2. Briefly: Viral load determination by quantitative real-time RT-PCR in tissues of infected hamsters.

SMILES strings stand for the structures.

`CC/C=C\C/C=C\C[C@H](O)\C=C/C=C/C=C/[C@H](O)C/C=C\CCC(=O)OC` [MaR1 ME, Methyl 7R,14S-dihydroxy-4Z,8E,10E,12Z,16Z,19Z-docosahexaenoate]: in the assay on SARS-CoV-2 [1] (MaR1 ME 0.05 and 0.5 mg/kg i.p. twice daily), the “Improvement in weight loss, dependence on dose” value is “dose dependent”. Moreover, in the assay with SARS-CoV-2 [1] (SARS-CoV-2 infected hamsters, MaR1 ME 0.05 and 0.5 mg/kg i.p., Lipinova 1.20 mg/kg by gavage, twice daily), the “Loss of body weight compared with infected untreated animals” value is recorded as “decreases significantly”. Moreover, the Body weight loss entry with SARS-CoV-2 [1] (highest dose of MaR1 ME (0.5 mg/kg i.p. twice daily from day 2 post inoculation), SARS-CoV-2 infected hamsters) was “less than 5%”. Moreover, the “Impact on the chemokine and cytokine profile in infected animals” value in the assay on TNF-α is given as “significant impact”. In the assay on TNF-α (lung tissue, 4, 7 and 14 dpi), the “Levels of TNF-α in the lungs compared with untreated animals” value is reported as “significantly lower”. In the assay with SARS-CoV-2 [2], the “Impact on viral load in tissues” value is on record as “significant impact”. The “Viral load in the lungs” value in the assay with SARS-CoV-2 [2] (after a few days of treatment) is “significantly reduced”.

For the origin of these results see patent US20230273228A1, “Diagnostic Method and Compounds for the Treatment of Infections Caused by a Pathogen” (priority 2020, published 2023).
